Measured values as given in patent US20260365655A1, “NEW USE OF JANUS KINASE (JAK)-DEGRADING AGENT BASED ON PROTEOLYSIS TARGETING CHIMERA (PROTAC)” (SHANGHAI SKIN DISEASE HOSPITAL, priority 2022, published 2026).
Where “and” joins values, the source holds several entries; their conditions need not be identical. Equal values may be shown once.

Legend:
[1] = test system: mouse ear eczema model (atopic dermatitis); assay: Mouse ear eczema model (calcipotriol-induced): SCORAD of skin damage and overall therapeutic effect; assay type: in vivo, BALB/c mice; conditions: 0.15% cream for external use; result is for model group relative to the treated groups
Excerpt: (§1) (1) Preparation method of a JAK-PROTAC cream: the same as in Example 1.
(§2) (2) Positive therapeutic drug: a 0.050% dexamethasone acetate cream (manufacturer: Shanghai Skin Disease Hospital).
(§3) (3) Blank matrix: a matrix component produced after the active ingredient JAK-PROTAC was removed from the cream.
(§4) (4) Molding agent: solution of calcipotriol in ethanol (manufacturer: MACKLIN).
(§5) (1) The mice were randomly divided into a blank control group (6 mice) (Control), a model group (6 mice) (Model), a positive drug group (6 mice) (Positive), a Compound 1-treating group (0.15% JAK-PROTAC cream 1 for external use) (6 mice) (Treat 1), and a Compound 2-treating group (0.15% JAK-PROTAC cream 2 for external use) (6 mice) (Treat 2).
(2) Molding was conducted in the following manner: […]
(1) The photographing was conducted every day. The severity of skin damage in an ear application region was evaluated through SCORAD for mice. […] Each symptom was scored as 0 to 3 depending on the severity of a skin damage: asymptomatic: 0, mild: 1, moderate: 2, and severe: 3. […]

[2] = test system: mouse ear eczema model (ear thickness); assay: Mouse ear eczema model: ear thickness; assay type: in vivo, BALB/c mice; conditions: for Ear thickness, mean value: group mean; for Ear thickness: individual mice, two ears; for Ear thickness difference among Compound 1-, Compound 2-treating and positive drug groups / Ear thickness of model group versus treated groups: after the modeling; for Ear thickness of model group versus treated groups: result is for model group relative to the treated groups
Excerpt: as §1, §2, §3, §4, §5
(§6) (2) Molding was conducted in the following manner:
(§7) A. On day 0 to day 7 of the modeling: At 9 a.m., the blank control group was administered with the cream matrix, the model group was administered with the molding agent, the positive group was administered with the molding agent, the Compound 1-treating group was administered with the molding agent, and the Compound 2-treating group was administered with the molding agent. At 5 p.m., the blank control group was not treated, the model group was administered with the cream matrix, the positive group was administered with the dexamethasone acetate cream, the Compound 1-treating group was administered with the JAK-PROTAC cream 1, and the Compound 2-treating group was administered with the JAK-PROTAC cream 2.
as §7, with “B.” for “A.”, “8” for “0”, “10” for “7”, “modeling, at” for “modeling: At”, “not treated,” for “administered with the molding agent,”, “not treated.” for “administered with the molding agent.”
(§8) C. On day 11 of the modeling: At 9 a.m., the blank control group was administered with the cream matrix, the model group was not treated, the positive group was not treated, the Compound 1-treating group was not treated, and the Compound 2-treating group was not treated. At 1 p.m., the mice were sacrificed through cervical dislocation, and the spleen and two ears of each mouse were collected.
(§9) (2) A body weight and thicknesses of two ears of each mouse were recorded daily.
(§10) The data of the present disclosure was processed with the Excel and GraphPad software. The experimental data was tested by one-way ANOVA. The post-hoc multiple comparison was conducted with the least significant difference (LSD). P<0.05 indicated a significant difference.

[3] = test system: mouse ear eczema model (spleen); assay: Mouse ear eczema model: body weight, spleen weight and spleen index; assay type: in vivo, BALB/c mice; conditions: for Ranking in terms of spleen weight and spleen index: AD model, positive drug, Compound 1 and Compound 2 groups; for Therapeutic effect for AD / Therapeutic effect versus the positive drug: atopic dermatitis mouse models; for Therapeutic effect versus the positive drug: positive drug = 0.050% dexamethasone acetate cream; for Spleen weights and spleen indexes versus blank control group: compared with the blank control group; for Spleen weight, mean value: group mean; for Spleen weight, mean value / Spleen weight: day 11, wet weight; for Spleen weight: individual mice
Excerpt: as §1, §2, §3, §4, §5, §6, §7
as §7, with “B.” for “A.”, “8” for “0”, “10” for “7”, “modeling, at” for “modeling: At”, “not treated,” for “administered with the molding agent,”, “not treated.” for “administered with the molding agent.”
as §8
(3) Spleen index testing:
After the mice were sacrificed, a spleen tissue was collected, dried with a filter paper to remove blood stains on a surface, and weighed for a wet weight. A spleen index was calculated as follows: spleen index=10,000×spleen weight (g)/body weight (g).
as §9
(3) After the experiment was completed, a spleen index of each mouse was calculated.
as §10

RAW 264.7 cells = assay: NO content assay in LPS+IFN-γ induced RAW 264.7 macrophage inflammatory model; assay type: cell-based; conditions: for NO level versus LPS+IFN-γ model group: 0.05, 0.1, 0.2 g/mL (so in the source), 0.4 and 0.8 μg/mL, 24 h, LPS 0.5 μg/mL + IFN-γ 2 ng/mL; for Inhibition of inflammation: concentration range of 0.05 μg/mL to 0.8 μg/mL; for Concentration of optimal anti-inflammatory effect: tested 0.05 μg/mL to 0.8 μg/mL
Experimental: (1) Reagents: compound 1: a compound shown by Compound 1 in formula (I); compound 2: a compound shown by Compound 2 in Formula (I); DMEM high-glucose medium: Wuhan Pricella Biotechnology Co., Ltd.; South American FBS and trypsin: Gibco, USA; penicillin-streptomycin: Hyclone, USA; and nitric oxide (NO) assay kit: Beyotime.
(2) Instruments: CO2 incubator: HERA cell 240; and microplate reader: Thermo Fisher Scientific, USA.
Induction of an RAW 264.7 macrophage inflammatory model with lipopolysaccharide (LPS) and interferon-gamma (IFN-γ): RAW 264.7 cells in a logarithmic growth phase were taken and inoculated in a 96-well cell culture plate at 20×10^3 cells/well, and cultured for 24 h until the cells were adherent. Ablank control group of 0 μg/mL, a model group of 0.5 μg/mL LPS+2 ng/mL IFN-γ, and experimental groups of compounds 1 and 2 at concentrations of 0.05 μg/mL, 0.1 μg/mL, 0.2 μg/mL, 0.4 μg/mL, and 0.8 μg/mL were set. Three replicate wells were set for each group. In the blank control group, cells were incubated with serum-free DMEM. In the LPS+IFN-γ model group, cells were incubated with serum-free DMEM. After 24 h of incubation, morphological changes of cells were observed, and a concentration of NO was determined according to instructions of the NO assay kit.
The data of the present disclosure was processed with the Excel and Graphpad software. The experimental data were tested by one-way ANOVA. The post-hoc multiple comparison was conducted with the LSD. P<0.05 indicated a significant difference.

[4] = Day0, cream for external use (JAK-PROTAC 0.15%, dexamethasone acetate 0.050%)
[5] = Day0 of modeling, cream for external use (JAK-PROTAC 0.15%, dexamethasone acetate 0.050%)

SMILES	Erythema, scale, and infiltration scores and total scores (SCORAD) of model group versus treated groups [1]	Ear thickness, mean value [2, 4] [mm]	Ear thickness [2, 5]	Ear thickness, mean value ([2]; Day 1) [mm]	Ear thickness ([2]; Day 1)	Ear thickness, mean value ([2]; Day2) [mm]	Ear thickness ([2]; Day2)	Ear thickness, mean value ([2]; Day3) [mm]	Ear thickness ([2]; Day3)	Ear thickness, mean value ([2]; Day4) [mm]	Ear thickness ([2]; Day4)	Ear thickness, mean value ([2]; Day5) [mm]	Ear thickness ([2]; Day5)	Ear thickness, mean value ([2]; Day6) [mm]	Ear thickness ([2]; Day6)	Ear thickness, mean value ([2]; Day7) [mm]	Ear thickness ([2]; Day7)	Ear thickness, mean value ([2]; Day8) [mm]	Ear thickness ([2]; Day8)	Ear thickness difference among Compound 1-, Compound 2-treating and positive drug groups [2]	further results
N#CC[C@H](C1CCCC1)n1cc(-c2nc(Nc3ccc(C(=O)NCCCCNc4cccc5c4C(=O)N(C4CCC(=O)NC4=O)C5=O)cc3)nc3[nH]ccc23)cn1 (stereo partly drawn) [Compound 1]	significantly higher than the respective scores in the Compound 1- and Compound 2-treating groups (P<0.05)	0.24	0.23 mm (2×) and 0.24 mm (3×) and 0.26 mm and 0.25 mm (2×)	0.27	0.26 mm (5×) and 0.29 mm and 0.28 mm and 0.27 mm	0.28	0.30 mm (3×) and 0.27 mm (3×) and 0.28 mm and 0.24 mm	0.28	0.30 mm and 0.31 mm and 0.26 mm and 0.28 mm and 0.27 mm (2×) and 0.29 mm and 0.24 mm	0.28	0.27 mm (2×) and 0.33 mm and 0.31 mm and 0.30 mm and 0.25 mm (2×) and 0.28 mm	0.29	0.32 mm (3×) and 0.29 mm and 0.28 mm (2×) and 0.30 mm and 0.24 mm	0.32	0.34 mm and 0.35 mm (2×) and 0.36 mm and 0.31 mm and 0.30 mm and 0.25 mm and 0.33 mm	0.33	0.33 mm (2×) and 0.32 mm and 0.37 mm and 0.35 mm and 0.36 mm and 0.26 mm and 0.34 mm	0.32	0.30 mm and 0.33 mm and 0.32 mm (2×) and 0.35 mm and 0.37 mm and 0.24 mm and 0.34 mm	no significant difference among the Compound 1- and Compound 2-treating groups and the positive drug group (P>0.05)	Ear thickness of model group versus treated groups [2]: significantly larger than ear thicknesses of the Compound 1- and Compound 2-treating groups, the positive drug group, and the blank control group (P<0.05); Ranking in terms of spleen weight and spleen index [3]: the Compound 1-treating group>the Compound 2-treating group>the positive drug group>the AD model group (P<0.05); Therapeutic effect for AD [3]: had a therapeutic effect for AD, could improve the inflammatory responses in atopic dermatitis mouse models; Therapeutic effect versus the positive drug [3]: exhibited a better therapeutic effect than the positive drug; Spleen weights and spleen indexes versus blank control group [3]: significantly reduced (P<0.05); Spleen weight, mean value [3]: 0.0862 g; Spleen weight [3]: 0.0798 g and 0.0934 g and 0.0855 g; NO level versus LPS+IFN-γ model group (RAW 264.7 cells): reduced; Inhibition of inflammation (RAW 264.7 cells): could effectively inhibit the inflammation; Concentration of optimal anti-inflammatory effect (RAW 264.7 cells): 0.4 µg/mL
CCS(=O)(=O)N1CC(CC#N)(n2cc(-c3nc(Nc4ccc(C(=O)NCCCCNc5cccc6c5C(=O)N(C5CCC(=O)NC5=O)C6=O)cc4)nc4[nH]ccc34)cn2)C1 (stereo not drawn) [Compound 2]	significantly higher than the respective scores in the Compound 1- and Compound 2-treating groups (P<0.05)	0.22	0.22 mm (3×) and 0.24 mm (2×) and 0.21 mm (3×)	0.26	0.28 mm and 0.29 mm and 0.24 mm (2×) and 0.25 mm (3×) and 0.26 mm	0.25	0.23 mm (3×) and 0.29 mm and 0.21 mm and 0.26 mm (2×) and 0.25 mm	0.26	0.26 mm (5×) and 0.27 mm and 0.24 mm and 0.25 mm	0.27	0.29 mm and 0.27 mm and 0.26 mm (2×) and 0.28 mm (2×) and 0.25 mm and 0.24 mm	0.29	0.29 mm (3×) and 0.30 mm (2×) and 0.28 mm and 0.31 mm and 0.26 mm	0.32	0.32 mm (2×) and 0.33 mm (2×) and 0.31 mm (2×) and 0.30 mm (2×)	0.35	0.34 mm (2×) and 0.36 mm (5×) and 0.35 mm	0.35	0.34 mm (4×) and 0.36 mm (2×) and 0.39 mm and 0.33 mm	no significant difference among the Compound 1- and Compound 2-treating groups and the positive drug group (P>0.05)	Ear thickness of model group versus treated groups [2]: significantly larger than ear thicknesses of the Compound 1- and Compound 2-treating groups, the positive drug group, and the blank control group (P<0.05); Ranking in terms of spleen weight and spleen index [3]: the Compound 1-treating group>the Compound 2-treating group>the positive drug group>the AD model group (P<0.05); Therapeutic effect for AD [3]: had a therapeutic effect for AD, could improve the inflammatory responses in atopic dermatitis mouse models; Therapeutic effect versus the positive drug [3]: exhibited a better therapeutic effect than the positive drug; Spleen weights and spleen indexes versus blank control group [3]: significantly reduced (P<0.05); Spleen weight, mean value [3]: 0.0732 g; Spleen weight [3]: 0.0749 g and 0.0739 g and 0.0708 g; NO level versus LPS+IFN-γ model group (RAW 264.7 cells): reduced; Inhibition of inflammation (RAW 264.7 cells): could effectively inhibit the inflammation; Concentration of optimal anti-inflammatory effect (RAW 264.7 cells): 0.4 µg/mL
